In article PMC5041076, “Ilex kaushue and Its Bioactive Component 3,5-Dicaffeoylquinic Acid Protected Mice from Lipopolysaccharide-Induced Acute Lung Injury” (Scientific Reports, 2016):
Like-named read-outs stand apart in the source and are kept apart here.

Experiments:
[1] = test system: fMLF/CB-activated neutrophils; assay: O2.- generation in fMLF/CB-activated neutrophils (ferricytochrome c reduction); format: cell-based, human; details: for IC50 / IC50 O2^.− generation: fMLF/CB-activated human neutrophils
Description: (§1) All assays were performed as described previously[58],[59]. Neutrophils isolated from the blood of healthy volunteers (20–30 years old) were resuspended in a Ca^2+-free HBSS buffer (pH 7.4) at 4 °C before use. O2^.− generation was measured based on reduction of ferricytochrome c. In brief, after supplementation with 0.5 mg/ml ferricytochrome c and 1 mM Ca^2+, neutrophils were equilibrated at 37 °C for 2 min and incubated with the specified drugs for 5 min. Neutrophils were activated using 30 nM fMLF or 100 nM LTB4 for 10 min after addition of cytochalasin B (CB, 1 μg/mL) for 3 min. Changes in absorbance concomitant with reduction of ferricytochrome c at 550 nm were continuously monitored. For elastase release, neutrophils (6 × 10^5 cells/mL) were mixed with methoxysuccinyl-Ala-Ala-Pro-Val-pNA (100 μM) substrate at 37 °C for 5 min. […] Inhibition of superoxide generation and elastase release were calculated in keeping with previous reports.

[2] = test system: fMLF/CB-activated neutrophils; assay: Elastase release in fMLF/CB-activated neutrophils; format: cell-based; details: for IC50: read-out: IC50 HNE (NE activity / elastase release)
Description: as §1

[3] = biological target: T1, Human neutrophil elastase (Homo sapiens, UniProt P08246); assay: Serine protease enzyme inhibition assay, HNE; format: biochemical; details: for Inh % (HNE inhibition): at 30 M (so in the source); for selectivity of inhibitory effect among serine proteases: five serine proteases examined
T1 construct: purchased Enzo BML-SE284
T1 sequence (P08246 30-267): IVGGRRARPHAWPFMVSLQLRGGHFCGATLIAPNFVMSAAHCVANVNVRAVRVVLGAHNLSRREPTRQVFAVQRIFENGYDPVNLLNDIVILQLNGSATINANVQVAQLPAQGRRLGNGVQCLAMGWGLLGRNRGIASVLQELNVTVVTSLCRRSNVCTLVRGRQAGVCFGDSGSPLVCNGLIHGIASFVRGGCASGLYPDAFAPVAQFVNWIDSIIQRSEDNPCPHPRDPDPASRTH

[4] = biological target: T2, Human cathepsin G (Homo sapiens, UniProt P08311); assay: Serine protease enzyme inhibition assay, cathepsin G; format: biochemical; details: mean ± S.E.M. (n ≥ 3)
T2 construct: purchased Enzo BML-SE283
T2 sequence (P08311 21-255): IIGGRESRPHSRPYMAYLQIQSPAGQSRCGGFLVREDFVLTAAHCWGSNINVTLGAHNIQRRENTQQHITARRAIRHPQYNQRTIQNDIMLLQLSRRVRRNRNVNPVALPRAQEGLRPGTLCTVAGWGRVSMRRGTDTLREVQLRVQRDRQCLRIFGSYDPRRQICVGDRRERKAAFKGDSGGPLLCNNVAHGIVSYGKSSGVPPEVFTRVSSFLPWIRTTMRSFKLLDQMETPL

[5] = biological target: T3, Bovine chymotrypsin (Bos taurus, UniProt P00766); assay: Serine protease enzyme inhibition assay, chymotrypsin; format: biochemical; details: mean ± S.E.M. (n ≥ 3)
T3 construct: purchased Sigma-Aldrich C4129

[6] = biological target: Human thrombin (Homo sapiens, UniProt P00734); assay: Serine protease enzyme inhibition assay, thrombin
[7] = biological target: T4, Human proteinase 3 (Homo sapiens, UniProt P24158); assay: Serine protease enzyme inhibition assay, proteinase 3; format: biochemical; details: mean ± S.E.M. (n ≥ 3)
T4 construct: purchased Merk 539483
T4 sequence (P24158 28-256): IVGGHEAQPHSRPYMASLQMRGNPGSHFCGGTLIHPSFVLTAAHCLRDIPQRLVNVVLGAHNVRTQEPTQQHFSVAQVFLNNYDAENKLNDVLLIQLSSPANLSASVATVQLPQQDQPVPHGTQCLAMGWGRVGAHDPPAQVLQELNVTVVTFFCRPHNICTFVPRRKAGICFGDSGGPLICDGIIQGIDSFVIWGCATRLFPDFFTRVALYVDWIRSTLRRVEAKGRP

[8] = fMLF/CB-activated human neutrophils
[9] = Table S3, read-out: IC50 HNE inhibitory activity
[10] = read-out: IC50 Thrombin, enzyme assay, mean ± S.E.M. (n ≥ 3)
[11] = enzyme assay, mean ± S.E.M. (n ≥ 3), read-out: IC50 HNE

Structure (SMILES) | IC50 [1] [µM] | IC50 O2^.− generation [1] | IC50 [2, 8] [µM] | IC50 [3, 9] [µM] | Inh % (HNE inhibition) ([3]; Table S3) [%] | IC50 [4] [µM] | IC50 [5] [µM] | IC50 [6, 10] [µM] | IC50 [3, 11] [µM] | IC50 [7] [µM] | IC50 ([1]; Neutrophil) [µM] | IC50 ([2]; Homo sapiens, Neutrophil) [µM] | IC50 [6] [µM] | IC50 ([2]; Neutrophil, fMLF/CB-activated human neutrophils) [µM] | efficacy relative to ursolic acid ([1]; fMLF-induced neutrophils) [fold] | IC50 HNE (NE activity / elastase release) [2, 8] | selectivity of inhibitory effect among serine proteases [3]
COc1cc(/C=C/C(=O)O)ccc1O [FA, ferulic acid, reference compound] | > 10 | non-active | > 10 | > 30 | 0.06 ± 4.79 | – | – | – | – | – | – | – | – | – | – | – | –
C[C@@H]1O[C@@H](O[C@H]2[C@H](OC(=O)[C@]34CC[C@@H](C)[C@@](C)(O)[C@H]3C3=CC[C@@H]5[C@@]6(C)CC[C@H](O[C@@H]7OC[C@H](O)[C@H](O[C@@H]8O[C@H](CO)[C@@H](O)[C@H](O)[C@H]8O)[C@H]7O[C@@H]7O[C@@H](C)[C@H](O)[C@@H](O)[C@H]7O)C(C)(C)[C@@H]6CC[C@@]5(C)[C@]3(C)CC4)O[C@H](CO)[C@@H](O)[C@@H]2O)[C@H](O)[C@H](O)[C@H]1O [Compound 15] | > 10 | – | 7.99 ± 1.18 | – | – | > 30 | > 30 | > 30 | > 30 | > 30 | – | – | – | – | – | – | –
O=C(O)[C@]1(O)C[C@@H](O)[C@@H](O)[C@H](O)C1 [QA, quinic acid] | – | – | – | – | – | – | – | – | – | – | > 10 | > 10 | – | – | – | – | –
O=C(O)/C=C/c1ccc(O)cc1 [p-CA, p-coumaric acid, reference compound] | – | non-active | – | > 30 | -4.00 ± 3.42 | – | – | – | – | – | > 10 | > 10 | – | – | – | – | –
O=C(/C=C/c1ccc(O)c(O)c1)O[C@@H]1C[C@](O)(C(=O)O)C[C@@H](O)[C@H]1O [Compound 3, Chlorogenic acid] | – | – | – | – | -4.76 ± 3.36 | > 30 | > 30 | – | > 30 | > 30 | 2.56 ± 1.06 | – | > 30 | > 10 | – | – | –
C[C@@H]1O[C@@H](O[C@H]2[C@H](O[C@H]3CC[C@]4(C)[C@H]5C=CC6=C7[C@]8(CC[C@](C)(OC8=O)[C@@]7(C)O)CC[C@@]6(C)[C@]5(C)CC[C@H]4C3(C)C)OC[C@H](O)[C@@H]2O[C@@H]2O[C@H](CO)[C@@H](O)[C@H](O)[C@H]2O)[C@H](O)[C@H](O)[C@H]1O [Compound 11] | > 10 | – | > 10 | – | – | > 30 | > 30 | > 30 | > 30 | > 30 | – | – | – | – | – | – | –
O=C(O)c1cc(O)c(O)c(O)c1 [THBA, 3,4,5-trihyroxybenzoic acid, reference compound] | 1.14 ± 0.08 | potently inhibit | > 10 | – | – | – | – | – | – | – | – | – | – | – | – | – | –
CC1=C(C)C2C3=CCC4[C@@]5(C)CC[C@H](O)C(C)(C)C5CC[C@@]4(C)[C@]3(C)CC[C@@]2(C(=O)O)CC1 (stereo partly drawn) [Compound 15-2, sanguisorbigenin] | – | good inhibitory effects | – | – | – | > 30 | 11.4 ± 0.2 | – | 24.7 ± 0.48 | 14.8 ± 0.59 | 0.26 ± 0.1 | 0.2 ± 0.02 | 11.8 ± 2.2 | – | 5 | good inhibitory effects | non-selective inhibitory effects
NCCc1ccc(S(=O)(=O)F)cc1 [AEBSF, 4-(2-aminoethyl)-benzenesulphonyl fluoride, reference compound] | – | – | – | – | – | – | – | – | – | – | – | – | 251 ± 8.78 | – | – | – | –
O=C(C=Cc1ccc(O)c(O)c1)OC1CC(O)(C(=O)O)CC(O)C1O (stereo not drawn) [Compound 1] | 1.54 ± 0.29 | – | > 10 | – | -2.99 ± 1.35 | > 30 | > 30 | > 30 | > 30 | > 30 | – | – | – | – | – | – | –
CC1(C)CC[C@]2(C(=O)O)CC[C@]3(C)C(=CC[C@@H]4[C@@]5(C)CC[C@H](O)C(C)(C)[C@@H]5CC[C@]43C)[C@@H]2[C@@H]1O [Compound 14-1] | 4.77 ± 0.4 | – | 2.84 ± 1.02 | – | – | > 30 | > 30 | > 30 | > 30 | > 30 | – | – | – | – | – | – | –
O=C(/C=C/c1ccc(O)c(O)c1)O[C@H]1[C@H](O)C[C@](O)(C(=O)O)C[C@H]1OC(=O)/C=C/c1ccc(O)c(O)c1 [Compound 7, 4,5-DCQA] | 1.49 ± 0.38 | – | > 10 | – | 36.42 ± 2.25 | > 30 | > 30 | > 30 | > 30 | > 30 | – | – | – | – | – | – | –
N#C/C=C1/C=C[C@@H](O)C[C@H]1O[C@@H]1O[C@H](CO)[C@@H](O)[C@H](O)[C@H]1O [Compound 18, menisdaurin] | > 10 | – | > 10 | – | – | > 30 | > 30 | > 30 | > 30 | > 30 | – | – | – | – | – | – | –
CC1(C)[C@@H](O)CC[C@]2(C)[C@H]3C=CC4=C5[C@]6(CC[C@](C)(OC6=O)[C@@]5(C)O)CC[C@@]4(C)[C@]3(C)CC[C@@H]12 [Compound 11-1] | > 10 | – | > 10 | – | – | > 30 | 8.06 ± 0.4 | > 30 | > 30 | 7.62 ± 0.32 | – | – | – | – | – | – | –
C=C1C2=C3C=C[C@@H]4[C@@]5(C)CC[C@H](O)C(C)(C)[C@@H]5CC[C@@]4(C)[C@]3(C)CC[C@@]23CC[C@]1(C)OC3=O [Compound 11-2] | > 10 | – | > 10 | – | – | > 30 | 6.04 ± 0.29 | 2.98 ± 0.35 | 8.55 ± 1.77 | 1.99 ± 0.25 | – | – | – | – | – | – | non-selective inhibitory effects
O=C(/C=C/c1ccc(O)c(O)c1)O[C@H](Cc1ccc(O)c(O)c1)C(=O)O [RA, rosaminiric acid, reference compound] | 1.29 ± 0.09 | potently inhibit | > 10 | > 30 | 10.58 ± 4.03 | – | – | – | – | – | – | – | – | – | – | – | –
O=C(C=Cc1ccc(O)c(O)c1)OC1C(O)CC(O)(C(=O)O)CC1O (stereo not drawn) [Compound 2] | 2.81 ± 1 | – | > 10 | – | -3.43 ± 4.85 | > 30 | > 30 | > 30 | > 30 | > 30 | – | – | – | – | – | – | –
C[C@H]1[C@H](C)CC[C@]2(C(=O)O)CC[C@]3(C)C(=CC[C@@H]4[C@@]5(C)CC[C@H](O)C(C)(C)[C@@H]5CC[C@]43C)[C@H]12 [Compound 9, ursolic acid] | – | good inhibitory effects | – | – | – | > 30 | 6.06 ± 0.05 | – | 11.5 ± 1.28 | 7.33 ± 0.65 | 0.99 ± 0.26 | 1.07 ± 0.33 | 6.37 ± 0.6 | – | – | good inhibitory effects | non-selective inhibitory effects
O=C(/C=C/c1ccc(O)c(O)c1)O[C@H]1[C@H](O)C[C@](O)(C(=O)O)C[C@H]1OC(=O)/C=C/c1ccc(O)c(O)c1 [Compound 4, 3,4-DCQA] | 1.7 ± 0.28 | – | > 10 | – | 9.91 ± 0.99 | > 30 | > 30 | > 30 | > 30 | > 30 | – | – | – | – | – | – | –
O=C(O)C=Cc1cccc(O)c1 [Compound 3-HCA, 3-hydroxycinnamic acid, reference compound] | – | non-active | – | > 30 | -3.63 ± 3.91 | – | – | – | – | – | > 10 | > 10 | – | – | – | – | –
CC(C)(C)C(=O)Oc1ccc(S(=O)(=O)Nc2ccccc2C(=O)NCC(=O)O)cc1 [Elaspol, reference compound] | – | – | – | – | – | – | – | – | – | 0.56 ± 0.06 | – | – | – | – | – | – | –
O=C(O)/C=C/c1ccc(O)c(O)c1 [CA, caffeic acid, reference compound] | – | potently inhibit | – | > 30 | – | – | – | – | – | – | 1.42 ± 0.02 | > 10 | – | – | – | – | –
